In patent US8415507B2 (priority 2010, dated 2013):
Blank lines part the entries; values can stand above or below the compound they belong to.

Columns and labels:
[1] = Relative humidity stability at ambient temperature, analyzed by XRPD; assay type: physicochemical
Text: Upon completion of the duration allowed, the samples were immediately analyzed by XRPD.

[2] = solution supersaturated with respect to pterostilbene; after three days
Experimental: Solubility and concentration measurements were performed using ultraviolet (UV) spectroscopy on a Spectramax Microplate Reader.
Appropriate dilutions with water were made as necessary to maintain absorbance readings within the standard curve. All experiments were repeated three times to evaluate the standard deviation, while particle size was not controlled for any of the experiments.
Aliquots were centrifuged; supernatant was extracted, and appropriate dilutions were made to maintain absorbance readings within the standard curve. […] All experiments were repeated three times to evaluate the standard deviation, while particle size was not controlled for any of the experiments.

[3] = in vivo; cited from earlier work
[4] = Lopez-Nicolas 2009; cited from earlier work
[5] = assay type: physicochemical
Experimental: Intrinsic dissolution in 900 mL water at ambient conditions was also attempted. […] Therefore, a concentration vs. time and intrinsic dissolution rate value were unobtainable at these conditions.

Compound: Cn1c(=O)c2c(ncn2C)n(C)c1=O [caffeine, reference compound]
- Conversion to hydrate at 75% RH ([1]; 75% RH, up to four weeks): does not display signs of conversion
- Time of partial conversion to hydrate at 94% RH ([1]; 94% RH): between one and three days
- Time of conversion to hydrate at 98% RH ([1]; 98% RH): less than one day

Compound: COc1cc(/C=C/c2ccc(O)cc2)cc(OC)c1.Cn1c(=O)c2c(ncn2C)n(C)c1=O [cocrystal 1 (Form I), pterostilbene:caffeine]
- Results (form by XRPD) ([1]; additional stress at 98% RH, 1 week (listed after 75% RH, 1 week)): cocrystal 1 (Form I), no caffeine hydrate
- Results (form by XRPD) ([1]; additional stress at 98% RH, 4 weeks (listed after 94% RH, 7 days)): cocrystal 1 (Form I), no caffeine hydrate
- Results (form by XRPD) ([1]; additional stress at 98% RH, 1 day (listed after 75% RH, 1 day)): cocrystal 1 (Form I), no caffeine hydrate
- Results (form by XRPD) ([1]; slurry, 2 days): cocrystal 1 (Form I), no caffeine hydrate
- Outcome of slurrying in water [2]: precipitation of pterostilbene

Compound: COc1cc(/C=C/c2ccc(O)cc2)cc(OC)c1 [pterostilbene, trans-3,5-dimethoxy-4′-hydroxystilbene]
- Bioavailability [3]: poor bioavailability
- Solubility in water [4]: poor solubility in water

- XRPD result in intrinsic dissolution ([5]; 900 mL water at ambient conditions, after 30 minutes): crystalline pterostilbene
- XRPD result in powder dissolution ([5]; slurrying in water at ambient, after 5 minutes): crystalline pterostilbene
Compound: pterostilbene:glutaric acid [cocrystal 3]
